Assay results taken from ChEMBL document CHEMBL1126805, “Synthesis and evaluation of a series of benzylaniline hydrochlorides as potential cytotoxic and antimitotic agents acting by inhibition of tubulin polymerization” (J Med Chem, 1993).
pIC50: −log10 of the molar value.

Tests used:
DMS-273 = assay: Tested for cytotoxicity against DMS 273 (small-cell lung cancer) cell line.; type: functional, Homo sapiens
NCI-H522 = assay: Tested for cytotoxicity against NCI-H522 (non-small-cell lung cancer) cell line.; type: functional, Homo sapiens
COLO 205 = assay: Tested for cytotoxicity against COLO 205 (colon cancer) cell line.; type: functional, Homo sapiens
Tubulin = Tubulin (Bos taurus, UniProt Q6B856+Q862F3); assay: In vitro inhibition of bovine electrophoretically homogeneous tubulin polymerization.; type: functional
HL-60 = assay: Tested for cytotoxicity against human cancer cell lines HL-60(TB) (leukemia) cell line.; type: functional
CAKI-1 = assay: Tested for cytotoxicity against CAKI-1 renal cancer; type: functional, Homo sapiens
M14 = assay: Tested for cytotoxicity against M14 melanoma; type: functional, Homo sapiens
OVCAR-3 = assay: Tested for cytotoxicity against OVCAR-3 (ovarian cancer) cell line.; type: functional, Homo sapiens
SF-295 = assay: In vitro cytotoxicity against SF-295 (CNS cancer) cell line.; type: functional, Homo sapiens

Chain of Tubulin (Q6B856 whole entry): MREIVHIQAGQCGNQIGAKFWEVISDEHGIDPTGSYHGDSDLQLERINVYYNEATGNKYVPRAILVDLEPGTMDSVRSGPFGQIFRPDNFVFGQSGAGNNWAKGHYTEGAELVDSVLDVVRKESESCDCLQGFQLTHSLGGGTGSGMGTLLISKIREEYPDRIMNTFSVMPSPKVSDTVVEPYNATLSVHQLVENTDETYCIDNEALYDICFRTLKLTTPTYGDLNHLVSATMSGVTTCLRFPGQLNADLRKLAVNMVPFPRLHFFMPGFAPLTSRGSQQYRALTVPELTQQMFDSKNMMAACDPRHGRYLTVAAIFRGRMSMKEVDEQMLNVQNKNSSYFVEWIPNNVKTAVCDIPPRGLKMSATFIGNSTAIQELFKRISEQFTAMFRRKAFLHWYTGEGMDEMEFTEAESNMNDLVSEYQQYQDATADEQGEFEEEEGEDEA
Chain of Tubulin (Q862F3 whole entry): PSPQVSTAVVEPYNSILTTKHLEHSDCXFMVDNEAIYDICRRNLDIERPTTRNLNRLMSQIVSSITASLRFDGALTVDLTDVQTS

CCOc1ccc(NCc2cc(OC)c(OC)c(OC)c2)cc1 [listing 1 of 2 here]
GI50 (DMS-273): 961 nM
GI50 (NCI-H522): 574 nM
GI50 (COLO 205): 538 nM
pIC50 (Tubulin): 4.96
GI50 (HL-60): 448 nM
GI50 (CAKI-1): 1050 nM
GI50 (M14): 532 nM
GI50 (OVCAR-3): 464 nM
GI50 (SF-295): 418 nM

CCOc1ccc(NCc2cc(OC)c(OC)c(OC)c2)cc1 [listing 2 of 2 here]
GI50 (DMS-273): 296 nM
GI50 (NCI-H522; Homo sapiens, NCI-H522): 380 nM
GI50 (COLO 205; Homo sapiens, COLO 205): 432 nM
pIC50 (Tubulin): 4.92
GI50 (HL-60; Homo sapiens, HL-60): 296 nM
GI50 (CAKI-1; Homo sapiens, CAKI-1): 2040 nM
GI50 (M14; Homo sapiens, M14): 403 nM
GI50 (OVCAR-3; Homo sapiens, OVCAR-3): 340 nM
GI50 (SF-295; Homo sapiens, SF-295): 274 nM

COc1ccc(/C=C\c2cc(OC)c(OC)c(OC)c2)cc1
pIC50 (Tubulin): 5.70

COc1cc(CNc2ccc(C(C)C)cc2)cc(OC)c1OC
GI50 (DMS-273; Homo sapiens, DMS-273): 12900 nM
pIC50 (Tubulin): < 4.40

COc1ccc(NCc2cc(OC)c(OC)c(OC)c2)cc1
GI50 (DMS-273): 141 nM
GI50 (NCI-H522): 412 nM
GI50 (COLO 205): 235 nM
pIC50 (Tubulin): 5.34
GI50 (HL-60): 115 nM
GI50 (CAKI-1): 458 nM
GI50 (OVCAR-3): 363 nM
GI50 (SF-295): 266 nM

CCc1ccc(/N=C/c2cc(OC)c(OC)c(OC)c2)cc1
GI50 (DMS-273; Homo sapiens, DMS-273): > 100000 nM
GI50 (NCI-H522; Homo sapiens, NCI-H522): > 100000 nM
pIC50 (Tubulin): < 4.40
GI50 (CAKI-1; Homo sapiens, CAKI-1): > 100000 nM
GI50 (M14; Homo sapiens, M14): > 100000 nM
GI50 (OVCAR-3; Homo sapiens, OVCAR-3): > 100000 nM
GI50 (SF-295; Homo sapiens, SF-295): > 100000 nM

CCCc1ccc(NCc2cc(OC)c(OC)c(OC)c2)cc1
GI50 (DMS-273; Homo sapiens, DMS-273): 16200 nM
pIC50 (Tubulin): < 4.40

COc1cc(CNc2ccc(C)cc2)cc(OC)c1OC
GI50 (DMS-273; Homo sapiens, DMS-273): 92.6 nM
GI50 (COLO 205; Homo sapiens, COLO 205): 152 nM
pIC50 (Tubulin): 5.22
GI50 (HL-60): 122 nM
GI50 (CAKI-1; Homo sapiens, CAKI-1): 192 nM
GI50 (M14; Homo sapiens, M14): 150 nM
GI50 (OVCAR-3; Homo sapiens, OVCAR-3): 184 nM
GI50 (SF-295; Homo sapiens, SF-295): 163 nM

CCCc1ccc(/N=C/c2cc(OC)c(OC)c(OC)c2)cc1
GI50 (DMS-273; Homo sapiens, DMS-273): > 100000 nM
GI50 (NCI-H522; Homo sapiens, NCI-H522): > 100000 nM
GI50 (COLO 205; Homo sapiens, COLO 205): > 100000 nM
pIC50 (Tubulin): < 4.40
GI50 (HL-60; Homo sapiens, HL-60): 22600 nM
GI50 (CAKI-1; Homo sapiens, CAKI-1): > 100000 nM
GI50 (M14; Homo sapiens, M14): > 100000 nM
GI50 (OVCAR-3; Homo sapiens, OVCAR-3): > 100000 nM
GI50 (SF-295; Homo sapiens, SF-295): > 100000 nM
